In PMC5608406, “In vivo activation of latent HIV with a synthetic bryostatin analog effects both latent cell "kick" and "kill" in strategy for virus eradication” (PLoS Pathogens, 2017):

Tests used:
[1] = test system: primary CD4+ T cells; assay: Induction of CD69 expression in primary CD4+ T cells; type: cell-based, human; conditions: 24h
Procedure: Primary human cells from HIV seronegative individuals were cultured in “RF10 medium” consisting of RPMI 1640 medium supplemented with 10% fetal bovine serum (FBS, Omega Scientific), 100 U/mL of penicillin, and 100 μg/mL of streptomycin (Invitrogen). PBMCs were isolated using Ficoll-Paque Plus separation (GE Healthcare). Primary CD4+ T cells were separated from PBMCs by negative immunomagnetic selection using the CD4+ T cell Isolation Kit (Miltenyi Biotec) according to the manufacturer’s instructions. Cells were then exposed to compound for 24 hours before staining and flow cytometric analysis of CD69 levels. Compound incubations were performed by seeding 10^5 cells/well in 100 μL of RF10 media containing the appropriate concentration of compound in wells of a v-bottomed 96-well plate. Bryostatin 1 (Tocris bioscience) and Prostratin (LC Laboratories) were obtained commercially, and bryologs or prostratin analogs were synthesized as previously described.
For human PBMC CD69 induction experiments, cells were stained with CD69-ECD (Beckman Coulter 6607110). During staining, cells were incubated at 4 °C for 20 minutes, washed with 2% FBS in PBS, and then resuspended in 2% paraformaldehyde. Stained samples were stored at 4 °C.
Flow cytometry samples were analyzed using a Cytomics FC 500 (Beckman Coulter) or a LSR Fortessa (BD Biosciences) flow cytometer. Data were analyzed using FlowJo (v7) software.

[2] = test system: HIV strain NL-HA; type: in vivo, humanized BLT mice; conditions: IP injection while maintaining ART, overnight incubation
[3] = test system: HA+ (HIV-expressing) cells; type: in vivo, humanized BLT mice; conditions: within 24 hours of activation, Ghost Red and Zombie Yellow

SMILES: C=C1C[C@H]2C[C@]3(O)O[C@H](C[C@@H](O)CC(=O)O[C@@H](CO)C[C@@H]4C/C(=C\C(=O)OC)[C@H](OC(=O)CCCCCCC)[C@@](O)(O4)C(C)(C)/C=C/[C@@H](C1)O2)C[C@H](OC(C)=O)C3(C)C [SUW133]
- CD69 expression [1]: upregulates expression
- percentage of HA+ (HIV-expressing) cells [2]: induced significant numbers of latently-infected cells to express viral proteins
- cells induced to express HIV that stained with cell death dyes [3]: up to 25%
